# Laboratory results reported in patent publication US9284350B2, “IAP BIR domain binding compounds” (Pharmascience Inc., priority 2010, dated 2016).
# Assays:
# [1] = target: T1, cIAP2 (Homo sapiens, UniProt Q13489); assay: Fluorescence polarization-based competition assay, cIAP2; format: binding; settings: FP assay, ki derived from IC50
# T1 construct: GST (N); made in house; host or cells: E. coli DH5α
# Protocol: (§1) Binding of compounds of Formula 1 to target BIR domains was measured using a fluorescence-polarization (FP) assay. Fluorescence-polarization was evaluated using a GENios microplate reader (TECAN) Pro instrument with the excitation filter set at 485 nm and the emission filter set at 535 nm. The final amount of protein used in the assay corresponds to the amount of protein necessary to obtain 80% of the maximum FP value in a P1 or P2 fluorescent (FITC) probe saturation experiment. The compounds potency (IC50) and selectivity, was assessed in the presence of the amount of target protein established, fluorescent probe, and a 10 point serial dilution in assay buffer (50 mM Hepes, pH 7.5, 250 mcg/mL γ-globulin, 2 mM DTT, 1% DMSO) of the selected compounds.
# (§2) Assays were carried out in duplicate using untreated black 96-well plates (Corning #3915) and a total volume of 100 microliters, containing 25 microliters of fluorescent probe at a final concentration of 2 nM in assay buffer, 25 microliters of diluted compound, 25 microliters of BIR protein into assay buffer and 25 microliters of assay buffer. Buffer only (blank) or probe only in buffer (G-factor) were used as controls for calibration. The plate was incubated at room temperature in the dark for one hour and FP values in millipolarization units (mP) were recorded using Genios Pro FP reader.
# (§3) The measured FP values (mP) were then plotted against compound concentration, and IC50 values were calculated based on a sigmoidal dose-response (variable-slope) curve fit using GraphPad Prism version 4.02 for Windows, GraphPad Software, San Diego Calif. USA and/or CambridgeSoft BioAssay Enterprise Version 10.1. The IC50 value is the concentration of test compound at which 50% of the tracer was displaced. ki values were derived from the calculated IC50 values as described above and according to the equation described in Nikolovska-Coleska, Z. (2004) Anal Biochem 332, 261-273. The results are presented in Table 2, wherein A=less than 25 nM; B=less than 250 nM; C=less than 1000 nM; and D=greater than 1000 nM.
# [2] = target: T2, XIAP (Homo sapiens, UniProt P98170); assay: Fluorescence polarization-based competition assay, XIAP; format: binding; settings: FP assay, ki derived from IC50
# T2 construct: fused on or other part: GST tag at the N-terminus (pGEX4T vectors)
# T2 sequence (P98170 246-497 limits assumed): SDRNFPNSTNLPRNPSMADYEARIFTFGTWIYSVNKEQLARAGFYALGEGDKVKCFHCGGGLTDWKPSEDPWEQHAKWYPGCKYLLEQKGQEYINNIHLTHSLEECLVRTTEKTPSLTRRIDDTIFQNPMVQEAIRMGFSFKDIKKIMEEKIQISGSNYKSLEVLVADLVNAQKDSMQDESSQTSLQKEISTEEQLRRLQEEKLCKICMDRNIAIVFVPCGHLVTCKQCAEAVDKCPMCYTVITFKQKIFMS
# Protocol: as §1, §2, §3
# [3] = target: T3, c-IAP1 (Homo sapiens, UniProt Q13490); assay: Fluorescence polarization-based competition assay, c-IAP1; format: binding; settings: FP assay, ki derived from IC50
# T3 construct: GST (N); made in house; host or cells: E. coli DH5α
# T3 sequence (Q13490 251-363): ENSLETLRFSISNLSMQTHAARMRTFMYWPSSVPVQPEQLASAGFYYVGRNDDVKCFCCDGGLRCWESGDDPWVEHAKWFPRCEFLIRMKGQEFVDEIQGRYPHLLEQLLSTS
# Protocol: as §1, §2, §3
# [4] = test system: Colorectal carcinoma HCT116 cells; assay: Cell death assay (MTT) in combination with HGS ETR1; format: cell-based; settings: with HGS ETR1 30 ng/ml, 72 hours, read-out: HCT116+ mapatubimap EC50
# Protocol: Colorectal carcinoma HCT116 cells were cultured as monolayers in 96 well plates at a density of 2000 cells per well in McCoy's 5a medium (HyClone) supplemented with 2.2 g/L sodium bicarbonate, 10% FBS (HyClone) and 1% penicillin/streptomycin (HyClone). 24 hours later, triplicate wells were treated with HGS ETR1 (30 ng/ml) in combination with compound. Cells were incubated in the presence of compound and HGS agonistic Trail receptor antibody, ETR1 (Mapatumamab, 30 ng/ml) for 72 hours. Metabolic viability of remaining cells was assessed by MTT (thiazolyl blue tetrazolium bromide, Sigma) assay.
# EC50 values (50% cell survival in the presence of compound as compared to untreated controls) were calculated from survival curves using BioAssay software (CambridgeSoft) and GraphPad Prism (Graph Pad Software Inc.). The results are provided in Table 3, below, wherein A=less than 50 nM; B=less than 250 nM; C=less than 1000 nM; and D=greater than 1000 nM.
# T1 sequence (Q13489 236-349): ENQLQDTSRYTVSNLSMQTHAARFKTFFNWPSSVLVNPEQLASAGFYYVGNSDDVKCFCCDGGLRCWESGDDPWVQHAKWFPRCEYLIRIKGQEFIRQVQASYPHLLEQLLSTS
SMILES,Ki [1] [nM],Ki [2] [nM],Ki [3] [nM],EC50 [4] [nM]
CCN[C@@H](C)C(=O)N[C@H](C(=O)N1CCC[C@H]1CN(CCc1ccccc1)C(=O)c1cn2cccnc2n1)C1CCCCC1 [Compound 2],< 250,> 1000,< 250,< 1000
CN[C@@H](C)C(=O)N[C@H](C(=O)N1CCC[C@H]1CN(CCc1cccc(F)c1)C(=O)c1cn2cccnc2n1)C(C)(C)C [Compound 12],< 250,< 1000,< 25,< 250
CN[C@@H](C)C(=O)N[C@H](C(=O)N1CCC[C@H]1CN(CCc1ccc(F)cc1)C(=O)c1cn2cccnc2n1)C1CCCCC1 [Compound 20],< 25,< 250,< 25,< 50
CN[C@@H](C)C(=O)N[C@H](C(=O)N1CCC[C@H]1CN(CCc1ccc(F)cc1)C(=O)c1cn2cccnc2n1)[C@@H](C)OC [Compound 36],< 25,< 250,< 25,< 250
C[C@H](N)C(=O)N[C@H](C(=O)N1CCC[C@H]1CN(CCc1ccc(F)cc1)C(=O)c1cn2cccnc2n1)C(C)(C)C [Compound 37],< 25,< 250,< 25,> 1000
CN[C@@H](C)C(=O)N[C@H](C(=O)N1C[C@@H](NC(=O)OCc2ccccc2)C[C@H]1CN(CCc1ccc(F)cc1)C(=O)c1cn2cccnc2n1)C(C)(C)C [Compound 44],< 25,< 250,< 25,< 250
CN[C@@H](C)C(=O)N[C@H](C(=O)N1C[C@@H](OCc2ccccc2)C[C@H]1CN(CCc1ccc(F)cc1)C(=O)c1cn2cccnc2n1)C(C)(C)C [Compound 47],< 25,< 250,< 25,< 250
CN[C@@H](C)C(=O)N[C@H](C(=O)N1C[C@@H](NC(=O)c2ccccc2)C[C@H]1CN(CCc1ccc(F)cc1)C(=O)c1cn2cccnc2n1)C(C)(C)C [Compound 49],< 25,< 1000,< 25,< 250
CN[C@@H](C)C(=O)N[C@H](C(=O)N1CCC[C@H]1CN(CCc1ccc(F)cc1)C(=O)c1cn(-c2ccc(OC)cc2)cn1)C(C)(C)C [Compound 52],,< 250,< 25,< 250
CN[C@@H](C)C(=O)N[C@H](C(=O)N1C[C@@H](NC(=O)Cc2ccccc2)C[C@H]1CN(CCc1ccc(F)cc1)C(=O)c1cn2cccnc2n1)C(C)(C)C [Compound 56],< 25,< 1000,< 25,< 1000
CN[C@@H](C)C(=O)N[C@H](C(=O)N1CCC[C@H]1CN(CCc1ccc(F)cc1)C(=O)c1cn2ccccc2n1)[C@@H](C)OC [Compound 58],< 25,< 250,< 25,< 50
CN[C@@H](C)C(=O)N[C@H](C(=O)N1C[C@@H](NS(=O)(=O)c2ccccc2)C[C@H]1CN(CCc1ccc(F)cc1)C(=O)c1cn2cccnc2n1)C(C)(C)C [Compound 59],< 25,< 250,< 25,< 1000
CN[C@@H](C)C(=O)N[C@@H](COC)C(=O)N1CCC[C@H]1CN(CCc1ccc(F)cc1)C(=O)c1cn2ccccc2n1 [Compound 60],,< 1000,< 25,< 1000
CN[C@@H](C)C(=O)N[C@H](C(=O)N1CCC[C@H]1CN(CCc1ccc(F)cc1)C(=O)c1coc(-c2ccccc2)n1)C(C)(C)C [Compound 64],,< 250,< 25,< 250
CN[C@@H](C)C(=O)N[C@H](C(=O)N1CCC[C@H]1CN(CCc1ccc(F)cc1)C(=O)c1cc2ccccn2c1)C(C)(C)C [Compound 68],< 25,< 250,< 25,< 250
CN[C@@H](C)C(=O)N[C@H](C(=O)N1CCC[C@H]1CN(CCc1ccc(F)cc1)C(=O)c1cn(-c2ccc(F)cc2)nn1)C(C)(C)C [Compound 125],< 25,< 250,< 25,
CN[C@@H](C)C(=O)N[C@H](C(=O)N1CCC[C@H]1CN(CCc1ccc(F)cc1)C(=O)c1nnn(-c2ccc(F)cc2)n1)C(C)(C)C [Compound 126],< 25,< 250,< 25,

# Second part, led by results:
Ki [1] [nM],Ki [2] [nM],Ki [3] [nM],SMILES,EC50 [4] [nM]
< 250,< 1000,< 250,CCN[C@@H](C)C(=O)N[C@H](C(=O)N1CCC[C@H]1CN(CCc1ccccc1)C(=O)c1cn2cccnc2n1)C1CCOCC1 [Compound 4],> 1000
< 25,< 250,< 25,CN[C@@H](C)C(=O)N[C@H](C(=O)N1CCC[C@H]1CN(CCc1ccccc1)C(=O)c1cn2cccnc2n1)C(C)(C)C [Compound 6],< 250
< 250,< 1000,< 25,CCN[C@@H](C)C(=O)N[C@H](C(=O)N1CCC[C@H]1CN(CCc1ccccc1)C(=O)c1cn2cccnc2n1)C(C)(C)C [Compound 14],< 250
< 25,< 250,< 25,CN[C@@H](C)C(=O)N[C@H](C(=O)N1CCC[C@H]1CN(CCc1ccc(F)cc1)C(=O)c1cn2ccccc2n1)C(C)(C)C [Compound 17],< 50
< 25,< 250,< 25,CN[C@@H](C)C(=O)N[C@H](C(=O)N1CCC[C@H]1CN(CCc1ccc(F)cc1)C(=O)c1cn2ccccc2n1)C1CCCCC1 [Compound 18],< 50
< 25,< 250,< 25,CN[C@@H](C)C(=O)N[C@H](C(=O)N1CCC[C@H]1CN(CCc1ccccc1)C(=O)c1cn2cc(F)ccc2n1)C(C)(C)C [Compound 32],< 250
< 25,< 250,< 25,CN[C@@H](C)C(=O)N[C@H](C(=O)N1CCC[C@H]1CN(CCc1ccc(F)cc1)C(=O)c1cn(-c2ccccc2)nn1)C(C)(C)C [Compound 50],< 250
,< 250,< 25,CN[C@@H](C)C(=O)N[C@H](C(=O)N1CCC[C@H]1CN(CCc1ccc(F)cc1)C(=O)c1cn(-c2c(C)cccc2C)cn1)C(C)(C)C [Compound 54],< 50
< 25,< 250,< 25,CN[C@@H](C)C(=O)N[C@H](C(=O)N1C[C@@H](NC(C)=O)C[C@H]1CN(CCc1ccc(F)cc1)C(=O)c1cn2cccnc2n1)C(C)(C)C [Compound 55],> 1000
,< 1000,< 25,CN[C@@H](C)C(=O)N[C@@H](CN(C)C)C(=O)N1CCC[C@H]1CN(CCc1ccc(F)cc1)C(=O)c1cn2ccccc2n1 [Compound 57],< 1000
< 25,< 250,< 25,CN[C@@H](C)C(=O)N[C@H](C(=O)N1CCC[C@H]1CN(CCc1ccc(F)cc1)C(=O)c1cn(-c2ccccc2)cn1)C(C)(C)C [Compound 61],< 250
,< 250,< 25,CN[C@@H](C)C(=O)N[C@H](C(=O)N1CCC[C@H]1CN(CCc1ccc(F)cc1)C(=O)c1nc2ccccc2o1)C(C)(C)C [Compound 62],< 1000
< 25,< 25,< 25,CN[C@@H](C)C(=O)N[C@H](C(=O)N1C[C@@H](Oc2ccc(F)cc2)C[C@H]1CN(CCc1ccc(F)cc1)C(=O)c1cn2cccnc2n1)C(C)(C)C [Compound 65],< 50
< 25,< 250,< 25,CN[C@@H](C)C(=O)N[C@H](C(=O)N1CCC[C@H]1CN(CCc1ccc(F)cc1)C(=O)c1cn(-c2ccc(F)cc2)cn1)C(C)(C)C [Compound 66],< 50
< 25,< 250,< 25,CN[C@@H](C)C(=O)N[C@H](C(=O)N1CCC[C@H]1CN(CCc1ccc(F)cc1)C(=O)c1cn2c(n1)CCC2)C(C)(C)C [Compound 67],< 50
